The record followed here is ChEMBL document CHEMBL4033648, “Eco-friendly synthesis of novel cyanopyridine derivatives and their anticancer and PIM-1 kinase inhibitory activities” (Eur J Med Chem, 2017).

Each structure is given as a SMILES string. pIC50: −log10 of the molar value.

Assay [1] concerns HepG2. Description: Cytotoxicity against human HepG2 cells. Format: functional, cell-based.
The next assay relates to MCF7. Put plainly: Cytotoxicity against human MCF7 cells. The format is functional, cell-based.
Assay [2] has as its target Serine/threonine-protein kinase pim-1 (Homo sapiens, UniProt P11309). Description: Inhibition of human PIM1 measured after 5 mins by ELISA relative to control. Details: concentration or dose not given beside the values. For orientation: ELISA stands for enzyme-linked immunosorbent assay.
For a further assay, the system named is HCT-116. Put plainly: Cytotoxicity against human HCT116 cells. Format: functional, cell-based.
The subject of assay [3] is HepG2. Description: Induction of apoptosis in human HepG2 cells assessed as increase in Bax level by qRT-PCR analysis relative to control. The format is functional. (In general: Quantitative PCR measures a nucleic acid by following its amplification.)
Assay [4] concerns HepG2. Description: Induction of apoptosis in human HepG2 cells assessed as upregulation of caspase 3 level measured up to 30 mins by immunoassay relative to control. Format: functional.
Assay [5] concerns HepG2. Put plainly: Induction of apoptosis in human HepG2 cells assessed as decrease in Bcl2 level by qRT-PCR analysis relative to control. The format is functional.
The subject of assay [6] is HepG2. Description: Induction of apoptosis in human HepG2 cells assessed as increase in Bax/Bcl2 ratio by qRT-PCR analysis relative to control. Format: functional.

The term pIC50 denotes −log10 of the IC50, conventionally taken in molar units. By inhibition is commonly meant the relative decrease from the control value, in per cent. As for `N#Cc1c(-c2cccc3ccccc23)cc(-c2cccs2)nc1N`, the negative logarithm of the IC50 (pIC50) with HepG2 [1] is 3.74; in the assay on MCF7, 4.41; with HCT-116 it was 4.18. In addition, in assay [2], the inhibition was 58.5%.

Consider `N#Cc1c(-c2cccs2)cc(-c2cc3c(ccc4ccccc43)oc2=O)[nH]c1=O`, for which the negative-log IC50 (pIC50) in the assay on HepG2 [1] is 4.52; in the assay with MCF7, 4.69; in assay [2], 6.03; in the assay on HCT-116, 4.44. For the same molecule, the “fold change (FC)” value in the assay on HepG2 [3] is recorded as 585; in the assay with HepG2 [4] it was 5.6; with HepG2 [5] it was 38.7; in the assay on HepG2 [6], 22704. In assay [2], this molecule came in with an inhibition of 89%.

With `N#Cc1c(-c2cccc3ccccc23)cc(-c2cc3c(ccc4ccccc43)oc2=O)nc1N`, the negative logarithm of the IC50 (pIC50) in the assay on HepG2 [1] is 4.34; in the assay with MCF7, 4.09; in assay [2] it was 4.59; in the assay with HCT-116, 4.51. In assay [2], the inhibition was determined as 61.5%.

`COc1ccc(-c2cc(-c3cc4c(ccc5ccccc54)oc3=O)nc(N)c2C#N)cc1` gave a pIC50 with HepG2 [1] of 3.52. The molecule also registered an inhibition in assay [2] of 26%.

Regarding `COc1ccc(-c2cc(-c3cccs3)[nH]c(=O)c2C#N)cc1`, the negative-log IC50 (pIC50) is 4.81 in the assay with HepG2 [1], 4.66 in the assay with MCF7, 5.17 in assay [2] and 4.54 with HCT-116. The molecule also displayed an inhibition in assay [2] of 73%.

Turning to `N#Cc1c(-c2cccc3ccccc23)cc(-c2ccc3ccccc3c2)[nH]c1=O`, the pIC50 is 3.66 in the assay with HepG2 [1], 3.63 in the assay on MCF7, 5.00 in assay [2] and 3.64 in the assay with HCT-116. Moreover, the inhibition in assay [2] turned out to be 81%.

Regarding `N#Cc1c(-c2cccc3ccccc23)cc(-c2cccs2)[nH]c1=O`, the negative logarithm of the IC50 (pIC50) in the assay with HepG2 [1] is 4.45; with MCF7, 4.57; in assay [2], 5.32; in the assay on HCT-116, 4.54. In assay [2], this molecule had an inhibition of 77.8%.

Take `COc1ccc(-c2cc(-c3cc4c(ccc5ccccc54)oc3=O)[nH]c(=O)c2C#N)cc1`: the pIC50 in the assay with HepG2 [1] was 4.44; in the assay on MCF7 it was 4.43; in assay [2], 4.97; in the assay with HCT-116, 4.60. This molecule also returned an inhibition in assay [2] of 83.1%.

For the molecule `N#Cc1c(-c2cccs2)cc(-c2cccs2)nc1O`, the pIC50 in the assay with HepG2 [1] was 4.38; in the assay on MCF7, 3.60; in assay [2], 5.50; in the assay on HCT-116, 3.73. Moreover, the inhibition in assay [2] is 84.8%.

Regarding `N#Cc1c(-c2cccc3ccccc23)cc(-c2ccc3ccccc3c2)nc1N`, the pIC50 in the assay with HepG2 [1] was 4.92; with MCF7 it was 4.72; in assay [2] it was 5.94; in the assay on HCT-116, 4.69. The inhibition in assay [2] came to 86.5%.

As to `N#Cc1c(-c2cccs2)cc(-c2cc3c(ccc4ccccc43)oc2=O)nc1N`, the pIC50 in the assay with HepG2 [1] is 4.45; in the assay on MCF7 it was 4.23; in assay [2] it was 4.72; in the assay on HCT-116, 4.10. Besides, the inhibition in assay [2] amounted to 69.2%.

In the case of `N#Cc1c(-c2cccc3ccccc23)cc(-c2cc3c(ccc4ccccc43)oc2=O)[nH]c1=O`, the negative-log IC50 (pIC50) with HepG2 [1] is 4.82; with MCF7, 4.60; in assay [2] it was 5.83; in the assay on HCT-116, 4.59. In assay [2], this molecule came in with an inhibition of 79.5%.

For the molecule `COc1cc2c(c(OC)c1OC)-c1ccc(OC)c(=O)cc1[C@@H](NC(C)=O)CC2` [COLCHICINE], in assay [2], the pIC50 was 5.37 and the inhibition worked out at 65.1%.

Regarding `COc1ccc(-c2cc(-c3cccs3)nc(N)c2C#N)cc1`, the figures for the negative-log IC50 (pIC50) in the assay with HepG2 [1], with MCF7 and in the assay on HCT-116 were 3.98, 4.05 and 3.91, respectively. In assay [2], this molecule gave an inhibition of 76.9%.

Regarding `O=c1[nH]cc(F)c(=O)[nH]1` [FLUOROURACIL], the pIC50 with HepG2 [1] was 5.09; in the assay on MCF7 it was 5.10.

Consider `N#Cc1c(-c2cccs2)cc(-c2cccs2)nc1N`, for which the negative-log IC50 (pIC50) is 4.55 with HepG2 [1], 4.14 with MCF7, 5.12 in assay [2] and 4.04 in the assay with HCT-116. This molecule also came in with an inhibition in assay [2] of 85%.
